Some results are limits rather than exact numbers.

For the first test, the target named is T1, Zcchc11 enzyme (Homo sapiens, UniProt Q5TAX3).
T1 construct: made in house; host or cells: HEK293 cells (Zcchc11); E. coli Rosetta II (LIN28A)
T1 sequence (Q5TAX3 212-1420): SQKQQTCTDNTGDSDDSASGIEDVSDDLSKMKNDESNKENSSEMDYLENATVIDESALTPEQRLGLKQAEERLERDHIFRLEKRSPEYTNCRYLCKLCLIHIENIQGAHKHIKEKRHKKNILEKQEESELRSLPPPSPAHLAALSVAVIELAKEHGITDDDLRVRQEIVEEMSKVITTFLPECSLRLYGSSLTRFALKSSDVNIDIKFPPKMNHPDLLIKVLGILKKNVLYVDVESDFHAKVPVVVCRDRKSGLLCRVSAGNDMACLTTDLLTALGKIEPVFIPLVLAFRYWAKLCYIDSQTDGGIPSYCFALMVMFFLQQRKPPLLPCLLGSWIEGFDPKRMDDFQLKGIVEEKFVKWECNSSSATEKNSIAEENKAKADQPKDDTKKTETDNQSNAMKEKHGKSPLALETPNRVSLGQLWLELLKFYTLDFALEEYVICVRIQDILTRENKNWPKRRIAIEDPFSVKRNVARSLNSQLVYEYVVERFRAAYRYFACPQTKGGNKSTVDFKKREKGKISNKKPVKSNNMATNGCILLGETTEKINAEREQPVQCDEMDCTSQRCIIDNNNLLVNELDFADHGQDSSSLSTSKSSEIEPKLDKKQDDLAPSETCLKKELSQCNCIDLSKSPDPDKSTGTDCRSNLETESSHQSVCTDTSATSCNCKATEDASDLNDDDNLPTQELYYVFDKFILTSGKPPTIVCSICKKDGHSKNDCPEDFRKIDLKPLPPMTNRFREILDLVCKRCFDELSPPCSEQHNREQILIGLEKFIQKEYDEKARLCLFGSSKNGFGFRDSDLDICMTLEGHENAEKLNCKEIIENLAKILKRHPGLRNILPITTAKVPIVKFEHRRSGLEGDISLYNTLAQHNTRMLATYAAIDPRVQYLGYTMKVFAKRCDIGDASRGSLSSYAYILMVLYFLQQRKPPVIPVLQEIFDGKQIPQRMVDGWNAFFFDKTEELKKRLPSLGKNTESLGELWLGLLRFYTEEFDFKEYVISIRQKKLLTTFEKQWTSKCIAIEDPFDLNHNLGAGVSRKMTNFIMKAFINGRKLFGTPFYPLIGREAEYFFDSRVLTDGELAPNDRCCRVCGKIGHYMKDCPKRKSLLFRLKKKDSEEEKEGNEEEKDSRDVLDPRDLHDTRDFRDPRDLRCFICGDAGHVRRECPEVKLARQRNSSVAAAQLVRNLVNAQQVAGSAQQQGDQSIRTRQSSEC
In words: TUTase assay (Zcchc11 assay, Lin28a-dependent polyuridylation of pre-let-7). In kind it is biochemical. The following applies: LIN28A 10 nM, Zcchc11 0.2 nM, 5′-fluorescein pre-let-7 miRNA 2 nM, UTP 5 uM, room temperature, 30 minutes pre-incubation; read-out: Potency Lin28a-dep Z11 IC50. The method, boiled down: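 Human Zcchc11 residues 212-1420 (HEK293-expressed, MBP tag cleaved, C-terminal FLAG) at 0.2 nM, with 10 nM full-length human LIN28A and 2 nM 5′-fluorescein pre-let-7, preincubated with compound 30 min at room temperature. Reaction started with 5 uM UTP plus 4 nM 3′-rhodamine A20 quench probe; fluorescein loss read kinetically, IC50 from initial rates.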
Take `COc1ccc(Cl)c(OC[C@H]2CC3CC3N2c2cc3c(cc2F)c(=O)c(C(=O)O)cn3-c2ccnc(N)c2)n1` (stereo partly drawn) [Example 66, 1-(2-Aminopyridin-4-yl)-7-((3R)-3-(((3-chloro-6-methoxypyridin-2-yl)oxy)methyl)-2-azabicyclo[3.1.0]hexan-2-yl)-6-fluoro-4-oxo-1,4-dihydroquinoline-3-carboxylic acid]: the 50% inhibitory concentration (IC50) (commonly the concentration that gives 50% inhibition) was not above 1000 nM.

In the case of `Cc1cccnc1OC[C@H]1CCCN1c1cc2c(cc1F)c(=O)c(C(=O)O)cn2-c1ccccc1` [Example 5, (R)-6-fluoro-7-(2-(((3-methylpyridin-2-yl)oxy)methyl)pyrrolidin-1-yl)-4-oxo-1-phenyl-1,4-dihydroquinoline-3-carboxylic acid], the IC50 is not above 1000 nM. The same measure, in the same setting: in the case of `Cc1cccnc1OC[C@H]1CCCN1c1c(F)cc2c(=O)c(C(=O)O)cn(-c3ccc(O)cc3F)c2c1F` [Example 20, (R)-6,8-difluoro-1-(2-fluoro-4-hydroxyphenyl)-7-(2-(((3-methylpyridin-2-yl)oxy)methyl)pyrrolidin-1-yl)-4-oxo-1,4-dihydroquinoline-3-carboxylic acid] it was not above 1000 nM.

Staying with this test, now noted: Lin28a-dependent Zcchc11 (Z11) TUTase activity; read-out: Potency Lin28a-dep Z11 IC50.
Consider `Cc1cccnc1OC[C@H]1CCCN1c1cc2c(cc1F)c(=O)c(C(=O)O)cn2-c1ccc(CO)cc1F` [Compound 123, (R)-6-fluoro-1-(2-fluoro-4-(hydroxy-methyl)phenyl)-7-(2-(((3-methylpyridin-2-yl)oxy)methyl)pyrrolidin-1-yl)-4-oxo-1,4-dihydro-quinoline-3-carboxylic acid], for which the IC50 was not above 1000 nM. As to `O=C(O)c1cn(-c2ccccc2CO)c2cc(N3CCC[C@@H]3COc3ccccn3)c(F)cc2c1=O` [Compound 160, (R)-6-fluoro-1-(2-(hydroxy-methyl)phenyl)-4-oxo-7-(2-((pyridin-2-yloxy)methyl)pyrrolidin-1-yl)-1,4-dihydro-quinoline-3-carboxylic acid], the IC50 lay within 1000 to 10000 nM.

As to `CO/N=C1\C[C@H](COc2nc(OC)ccc2Cl)N(c2cc3c(cc2Cl)c(=O)c(C(=O)O)cn3-c2ccc(N3CC(N(C)C)C3)nc2)C1` [Compound 200, (R,E)-6-chloro-7-(2-(((3-chloro-6-methoxy-pyridin-2-yl)oxy)methyl)-4-(methoxyimino)pyrrolidin-1-yl)-1-(6-(3-(dimethyl-amino)azetidin-1-yl)pyridin-3-yl)-4-oxo-1,4-dihydro-quinoline-3-carboxylic acid], the IC50 was not above 1000 nM. Still for that read-out and setting: in the case of `COc1ccc(Cl)c(OC[C@H]2CC(C3CCC3)CN2c2cc3c(cc2Cl)c(=O)c(C(=O)O)cn3-c2ccc(N3CC(N(C)C)C3)nc2)n1` (mixture of isomers) [Compound 203, rac-6-chloro-7-((2R)-2-(((3-chloro-6-methoxy-pyridin-2-yl)oxy)methyl)-4-cyclobutyl-pyrrolidin-1-yl)-1-(6-(3-(dimethyl-amino)azetidin-1-yl)pyridin-3-yl)-4-oxo-1,4-dihydro-quinoline-3-carboxylic acid] it was not above 1000 nM; in that of `CN(C)C1CN(c2ccc(-n3cc(C(=O)O)c(=O)c4cc(Cl)c(N5[C@@H](COc6nc(OC7CC7)ccc6Cl)C[C@H]6C[C@H]65)cc43)cn2)C1` [Compound 270, 6-chloro-7-((1R,3R,5R)-3-(((3-chloro-6-cycloprop-oxypyridin-2-yl)oxy)methyl)-2-azabicyclo [3.1.0]hexan-2-yl)-1-(6-(3-(dimethyl-amino)azetidin-1-yl)pyridin-3-yl)-4-oxo-1,4-dihydro-quinoline-3-carboxylic acid], not above 1000 nM; in that of `Cc1ccc(Cl)c(OC[C@H]2C[C@H]3C[C@H]3N2c2cc3c(cc2F)c(=O)c(C(=O)O)cn3-c2ccc(N(C)C)nc2)n1` [Compound 309], not above 1000 nM. With `O=C(O)c1cn(-c2ccc(F)cc2)c2cc(N3CCC[C@@H]3COc3ccccn3)c(F)cc2c1=O` [Compound 151, (R)-6-fluoro-1-(4-fluorophenyl)-4-oxo-7-(2-((pyridin-2-yloxy)methyl)pyrrolidin-1-yl)-1,4-dihydro-quinoline-3-carboxylic acid], the concentration for half-maximal inhibition (IC50) is not above 1000 nM.

The test is the same for the next values; noted with them: Lin28a-dependent Zcchc11 (Z11) TUTase assay; read-out: Potency Lin28a-dep Z11 IC50.
For the compound `COc1ccc(-n2cc(C(=O)O)c(=O)c3cc(Cl)c(N4CCC[C@@H]4COc4ncccc4Cl)cc32)cn1` [Example 353, (R)-6-chloro-7-(2-(((3-chloropyridin-2-yl)oxy)methyl)pyrrolidin-1-yl)-1-(6-methoxypyridin-3-yl)-4-oxo-1,4-dihydroquinoline-3-carboxylic acid], the IC50 was not above 1000 nM. On the same count and under the same terms, in the case of `COc1ccc(Cl)c(OC[C@H]2C[C@H](NC(C)=O)CN2c2cc3c(cc2Cl)c(=O)c(C(=O)O)cn3-c2ccc(N3CC(N(C)C)C3)nc2)n1` [Example 637, 6-chloro-7-[(2R)-2-{[(3-chloro-6-methoxypyridin-2-yl)oxy]methyl}-4-acetamido-pyrrolidin-1-yl]-1-{6-[3-(dimethylamino)azetidin-1-yl]pyridin-3-yl}-4-oxo-1,4-dihydroquinoline-3-carboxylic acid] it was not above 1000 nM; in that of `CS(=O)(=O)Nc1ccc(-n2cc(C(=O)O)c(=O)c3cc(F)c(N4CCC[C@@H]4COc4ccccn4)cc32)cc1` [Example 371, (R)-6-fluoro-1-(4-(methyl-sulfonamido)phenyl)-4-oxo-7-(2-((pyridin-2-yloxy)methyl)pyrrolidin-1-yl)-1,4-dihydro-quinoline-3-carboxylic acid], not above 1000 nM.

Turning to `CN(C)[C@@H]1CCN(c2ccc(-n3cc(C(=O)O)c(=O)c4cc(Cl)c(N5CCC[C@@H]5COc5ncccc5Cl)cc43)cn2)C1` [Example 522, 6-chloro-7-((R)-2-(((3-chloropyridin-2-yl)oxy)methyl)pyrrolidin-1-yl)-1-(6-((R)-3-(dimethylamino)pyrrolidin-1-yl)pyridin-3-yl)-4-oxo-1,4-dihydroquinoline-3-carboxylic acid], the concentration for half-maximal inhibition (IC50) was not above 1000 nM.

`CN(C)C1CN(c2ccc(-n3cc(C(=O)O)c(=O)c4cc(F)c(N5CCC[C@@H]5COc5cc(OCc6ccccc6)ccn5)c(F)c43)cn2)C1` [Example 612, (R)-7-(2-(((4-(benzyloxy)pyridin-2-yl)oxy)methyl)pyrrolidin-1-yl)-1-(6-(3-(dimethylamino)azetidin-1-yl)pyridin-3-yl)-6,8 difluoro-4-oxo-1,4-dihydroquinoline-3-carboxylic acid]: the IC50 was not above 1000 nM.

As to `N#CCn1cc(C(=O)O)c(=O)c2cc(Cl)c(N3CCC[C@@H]3COc3ncccc3Cl)cc21` [Example 569, (R)-6-chloro-7-(2-(((3-chloropyridin-2-yl)oxy)methyl)pyrrolidin-1-yl)-1-(cyanomethyl)-4-oxo-1,4-dihydroquinoline-3-carboxylic acid], the half-inhibitory concentration (IC50) is not above 1000 nM. In the case of `Nc1cc(F)c(-n2cc(C(=O)O)c(=O)c3cc(Cl)c(N4CCC[C@@H]4COc4ncccc4Cl)cc32)cn1` [Example 586, (R)-1-(6-amino-4-fluoropyridin-3-yl)-6-chloro-7-(2-(((3-chloropyridin-2-yl)oxy)methyl)pyrrolidin-1-yl)-4-oxo-1,4-dihydroquinoline-3-carboxylic acid], the IC50 was not above 1000 nM. `Nc1cnc(-n2cc(C(=O)O)c(=O)c3cc(Cl)c(N4CCC[C@@H]4COc4ncccc4Cl)cc32)cn1` [Example 483, 1-(5-aminopyrazin-2-yl)-6-chloro-7-[(2R)-2-{[(3-chloropyridin-2-yl)oxy]methyl}pyrrolidin-1-yl]-4-oxo-1,4-dihydroquinoline-3-carboxylic acid]: the half-inhibitory concentration (IC50) was not above 1000 nM.

As for `O=C(O)c1cn(-c2ccnc(N3CCC3)c2)c2cc(N3CCC[C@@H]3COc3ncccc3Cl)c(Cl)cc2c1=O` [Example 554, (R)-1-(2-(azetidin-1-yl)pyridin-4-yl)-6-chloro-7-(2-(((3-chloropyridin-2-yl)oxy)methyl)pyrrolidin-1-yl)-4-oxo-1,4-dihydroquinoline-3-carboxylic acid], the 50% inhibitory concentration (IC50) was not above 1000 nM.

For the origin of these results see US12662491B2 (Redona Therapeutics, Inc., priority 2020, dated 2026).
